{"source": "patent US11058654B2", "about": "“Compositions and methods for the treatment of hemoglobinopathies and thalassemias” (AXCELLA HEALTH INC., priority 2018, dated 2021)", "system": "RBCs of healthy whole blood", "assay": "RBC deformability (LORRCA elongation index), ex vivo TBHP oxidation of healthy whole blood", "format": "cell-based, human", "details": "for EI over vehicle control, ½ EImax and EImax: healthy donor 2, single amino acid treatments, in words", "from_the_text": "Whole blood from healthy African American and/or Hispanic donors was obtained from Research Blood Components, LLC based on the following donor selection criteria: Adult age (between 18 and 50 years), normal BMI (<30), and absence of other confounding clinical conditions. Whole blood from SCD donors were obtained from BioIVT based on the following donor selection criteria: Patients with genotypes HbSS, HbSC, HbS/β^0 and at least 1-2 months gap since last blood transfusion. Whole blood was shipped on ice on the same day as blood draw. Upon receipt, the blood sample was aliquoted and stored in the refrigerator until used for studies.\nRBC deformability measurements were conducted with the Laser Optical Rotational Red Cell Analyzer (LORRCA) from RR Mechatronics in a temperature-controlled environment (37° C.). Briefly, an even layer of RBCs suspended in polyvinylpyrrolidone (PVP) is subjected to shear stress gradient (0.3 to 30 Pa) through two concentric cylinders and the resulting changes in RBC shape or deformability are measured by a laser beam diffraction pattern. The captured images of RBC shape in response to increasing shear stress are then analyzed by the LORRCA program to calculate Elongation Index (EI).\nHealthy RBCs have higher deformability≥0.5 EI and SCD RBCs have lower deformability or EI values as studied by LORRCA ektacytometry in the field. […] The induced hemolysis model in this disclosure involves use of tert-butyl hydroperoxide (TBHP) to lower EI of RBCs.\nThe ex vivo hemolysis study disclosed here involves overnight treatment of whole blood with vehicle as a control and specific amino acids followed by rapid oxidation (5 min) with TBHP. Method for oxidation of whole blood with tert-butyl hydroperoxide has been used in prior literature (Diederich L, et al, Front Physiol. 2018 May 11; 9:332). RBC deformability or shape changes are then measured with LORRCA ektacytometry.\nWhole blood aliquots stored in the fridge were brought up to room temperature while gently shaking on a rocker at low speed for an hour to ensure gradual and uniform suspension of red blood cells prior to deformability measurements. Vehicle control used in the study was 1× Dulbecco's […]) and amino acids disclosed herein were added (at either final […] or 2.5 mM concentration as indicated) to corresponding vehicle and amino acid treatment conditions. The samples were then incubated overnight at 37° C. Next day, 25 μL of whole blood was taken from each treatment condition and added to 5 mL Elon ISO viscous solution from RR Mechatronics. The sample was inverted 15-20 times to ensure proper mixing of the treated RBCs with the Elon ISO solution followed by loading the sample on LORRCA and capturing RBC deformability or shape measurements over the applied shear gradient. The remaining whole blood treatments were returned to incubator (37° C.) until deformability measurements were completed for all treatments. To the remaining whole blood treatment samples, TBHP solution (5.0-6.0 M in Decane, Sigma) was added at 2.5 mM final concentration from a 100 mM freshly prepared stock and incubated for further 5 min at 37° C. 25 μL of this TBHP-treated sample was immediately removed at the end of the 5 min incubation and added to the Elon ISO solution for RBC deformability measurement after oxidation. Included in the Tables 13-15 are EI measurements at ½ EImax shear stress 1.69 Pa and EImax shear stress 30 Pa from these studies and FIG. 1 captures EI measurements for all shear stress points for the indicated treatment conditions."}
{"smiles": "CC(=O)N[C@@H](CS)C(=O)O", "note": "[N-Acetyl Cysteine, N-acetylcysteine]", "values": [{"measurement": "EI over vehicle control, ½ EImax and EImax", "result": "higher than the vehicle"}]}
{"smiles": "N=C(N)NCCC[C@H](N)C(=O)O", "note": "[Arginine]", "values": [{"measurement": "EI over vehicle control, ½ EImax and EImax", "result": "higher than the vehicle"}]}
{"smiles": "NC(=O)CC[C@H](N)C(=O)O", "note": "[Glutamine]", "values": [{"measurement": "effectiveness among all treatment groups (EI and fold change relative to vehicle)", "setting": "healthy donor 2, in words", "result": "least effective"}, {"measurement": "EI over vehicle control, ½ EImax and EImax", "result": "higher than the vehicle"}]}
